The source of these data is article PMC8344021, “Discovery of Small Molecule Bak Activator for Lung Cancer Therapy” (Theranostics, 2021).

Assay [1] concerns other Bcl2 family members (Bax, Bcl2, Bcl-XL, Bcl-w and Mcl-1). Put plainly: Competitive fluorescence polarization (FP) assay, other Bcl2 family members. In kind it is binding, human. The text has this: To confirm the binding of BKA-073 with Bak, we first conducted a competitive fluorescence polarization (FP) assay using purified human Bak protein, fluorescent Bak BH3 domain peptide, and BKA-073 as described, [37]-[40]. […] There are multiple amino acid differences in the BH3 domains between Bak and other Bcl2 family members, which helps to explain why BKA-073 only binds to Bak but not to other Bcl2 family members (i.e. Bax, Bcl2, Bcl-XL, Bcl-w and Mcl-1). In addition to the FP assay, isothermal titration calorimetry (ITC) was also employed to measure Bak/BKA-073 binding. […] In addition to human Bak/BKA-073 binding, we measured mouse Bak/BKA-073 binding using ITC.
(1 x 10^5 cells) was transferred to a 5 ml culture tube, followed by the addition of 5 μl of FITC Annexin V and 5 μl propidium iodide (PI). […] Samples were analyzed by flow cytometry (BD FACSCantoTMII, BD Biosciences, San Jose, CA). ∆% cell death was calculated with the formula: (% cell death treated - % cell death non-treated) as described […]
Fluorescence polarization (FP) assay
Fluorescence polarization assay was carried out as described previously. […] The FP values (in millipolarization units) were measured using a fluorescence microplate reader at 485/530 nm (Gemini XPS, Molecular Devices). Data analysis and inhibit ory constant (Ki) value was determined by GraphPad prism software as described. […]
A general note: Fluorescence polarisation rises when a labelled molecule tumbles more slowly, as on binding a larger partner.

In assay [2] the test system is NSCLC and SCLC cell lines. Kind of assay: Dynamic BH3 profiling in panel of NSCLC and SCLC cell lines. In kind it is cell-based, human. The settings on record: 1μM, 16h. The procedure: DBP using Bim peptide was carried out as described previously [24]-[26]. After treatment with BKA-073, venetoclax (ABT-199) or DMSO control for 16h, cells were collected, washed and resuspended at 2 x 10^6 cells/ mL in mannitol experimental buffer (MEB) [150 mM D-mannitol, 10 mM HEPES-KOH (pH 7.5), 50 mM KCl, 20 μM EGTA, 20 μM EDTA, 0.1% BSA, and 5 mM succinate] as described. One volume of the 4x cell suspension was added to one volume of a 4x dye solution containing 4 μM JC-1, […] oligomycin, 0.02% digitonin, 20mM β-mercaptoethanol in MEB. The 2x cell/dye mixture was allowed to rest for 5-10 min at room temperature to allow for permeabilization and JC-1 staining. A total of 15μl of the 2x cell/dye mixture was loaded into a 384-well plate that contained 15µL of Bim BH3 peptide (0.03, 0.1, 0.3, 1, and 3 μM) in MEB, shaken for 15 s inside the reader, and the fluorescence at 590 nm monitored every 5 min for 180 min at 32 °C. The dynamic BH3 profile (∆ % Priming) was calculated as described [24]-[26].
Figure 1 Discovery of small molecule BKA-073 as a lead compound that targets BH3 domain of Bak and induces mitochondrial priming and apoptosis in lung cancer cells. (A) Schematic illustration of screening strategies used to identify the lead Bak agonist BKA-073 and its chemical structure. […] (C) Expression levels of Bak were analyzed by Western blot in NSCLC and SCLC cell lines. […]

With `COc1ccc2nc3ccccc3c(NCCNCC(C)O)c2c1` (centres unmarked) [BKA-073], the “binding affinity with other Bcl2 family members” value in assay [1] was “very low binding affinity”. In assay [2], the “induction of mitochondrial priming” value is on record as “potently induced”.
